Earlier results on 40 molecules are cited in PMC12281572.

SMILES strings stand for the structures. Where “and” joins values, the source holds several entries; their conditions need not be identical. Equal values may be shown once.

This data set is described as follows: FTIR, 4-fluorophenol as donor (the pK_BHX database, per the paper). As to conditions: CCl4; 25 C.
For `Cn1cccn1`, the “pK_BHX (log10 Kf of the 1:1 H-bond complex with 4-fluorophenol, by FTIR)” value is reported as 1.84 log units.

As to `CN1C(CC(=O)c2ccccc2)CCCC1CC(O)c1ccccc1` (stereo not shown), the “pK_BHX (log10 Kf of the 1:1 H-bond complex with 4-fluorophenol, by FTIR)” value is 2.11 log units and 1.94 log units.

Regarding `c1ccc(C23CC4CC(CC(C4)C2)C3)cc1`, the “pK_BHX (log10 Kf of the 1:1 H-bond complex with 4-fluorophenol, by FTIR)” value is given as -0.28 log units.

In the case of `Oc1ccccc1`, the “pK_BHX (log10 Kf of the 1:1 H-bond complex with 4-fluorophenol, by FTIR)” value is -0.07 log units.

In the case of `CCOC(=O)C(C)C`, the “pK_BHX (log10 Kf of the 1:1 H-bond complex with 4-fluorophenol, by FTIR)” value is given as 1.09 log units.

`Cc1ccc(O)cc1`: the “pK_BHX (log10 Kf of the 1:1 H-bond complex with 4-fluorophenol, by FTIR)” value is recorded as 0.03 log units.

As for `NCc1cccc([N+](=O)[O-])c1`, the “pK_BHX (log10 Kf of the 1:1 H-bond complex with 4-fluorophenol, by FTIR)” value is listed as 1.26 log units.

Turning to `CC(=Nc1ccccc1)Nc1ccc(C)cc1`, the “pK_BHX (log10 Kf of the 1:1 H-bond complex with 4-fluorophenol, by FTIR)” value was 1.85 log units.

In the case of `CCN(CC)C(=O)N(c1ccccc1)c1ccccc1`, the “pK_BHX (log10 Kf of the 1:1 H-bond complex with 4-fluorophenol, by FTIR)” value was 2.07 log units.

In the case of `CCN1C(=O)C=CC1=O`, the “pK_BHX (log10 Kf of the 1:1 H-bond complex with 4-fluorophenol, by FTIR)” value is 0.68 log units.

As to `CN1CCC(Cl)CC1`, the “pK_BHX (log10 Kf of the 1:1 H-bond complex with 4-fluorophenol, by FTIR)” value is recorded as 1.7 log units.

Take `CN1CCCCC1=O`: the “pK_BHX (log10 Kf of the 1:1 H-bond complex with 4-fluorophenol, by FTIR)” value is recorded as 2.6 log units.

Regarding `COc1ccccc1`, the “pK_BHX (log10 Kf of the 1:1 H-bond complex with 4-fluorophenol, by FTIR)” value is on record as -0.07 log units.

In the case of `CN(C)C(=O)c1ccccc1`, the “pK_BHX (log10 Kf of the 1:1 H-bond complex with 4-fluorophenol, by FTIR)” value was 2.23 log units.

As for `Brc1cccnc1`, the “pK_BHX (log10 Kf of the 1:1 H-bond complex with 4-fluorophenol, by FTIR)” value was 1.31 log units.

In the case of `Cc1ccncc1`, the “pK_BHX (log10 Kf of the 1:1 H-bond complex with 4-fluorophenol, by FTIR)” value is recorded as 2.07 log units.

As to `COc1cc[n+]([O-])cc1`, the “pK_BHX (log10 Kf of the 1:1 H-bond complex with 4-fluorophenol, by FTIR)” value is listed as 3.7 log units.

Take `Clc1ccccn1`: the “pK_BHX (log10 Kf of the 1:1 H-bond complex with 4-fluorophenol, by FTIR)” value is 1.05 log units.

With `CC(C)(C)[N+](=O)[O-]`, the “pK_BHX (log10 Kf of the 1:1 H-bond complex with 4-fluorophenol, by FTIR)” value is 0.42 log units.

For `CN(C)C(=O)c1ccc(N(C)C)cc1`, the “pK_BHX (log10 Kf of the 1:1 H-bond complex with 4-fluorophenol, by FTIR)” value is 2.49 log units.

On to `CCC(=O)N(C1CCCCC1)C1CCCCC1`, for which the “pK_BHX (log10 Kf of the 1:1 H-bond complex with 4-fluorophenol, by FTIR)” value is 2.22 log units.

Take `CC(C)(C)c1cc(C(C)(C)C)cc(C(C)(C)C)c1`: the “pK_BHX (log10 Kf of the 1:1 H-bond complex with 4-fluorophenol, by FTIR)” value is reported as -0.23 log units.

On to `CCN(CC)C(=O)SC`, for which the “pK_BHX (log10 Kf of the 1:1 H-bond complex with 4-fluorophenol, by FTIR)” value was 1.56 log units.

Take `CCN(CC)C(C)=O`: the “pK_BHX (log10 Kf of the 1:1 H-bond complex with 4-fluorophenol, by FTIR)” value is 2.47 log units.

For `COc1ccc(N=CN(C)C)cc1`, the “pK_BHX (log10 Kf of the 1:1 H-bond complex with 4-fluorophenol, by FTIR)” value was 2.08 log units.

Take `c1ccc(-c2nc3ccccc3o2)cc1`: the “pK_BHX (log10 Kf of the 1:1 H-bond complex with 4-fluorophenol, by FTIR)” value was 1.18 log units.

`CC(C)N(C#N)C(C)C`: the “pK_BHX (log10 Kf of the 1:1 H-bond complex with 4-fluorophenol, by FTIR)” value is listed as 1.74 log units.

Take `O=c1ccocc1`: the “pK_BHX (log10 Kf of the 1:1 H-bond complex with 4-fluorophenol, by FTIR)” value was 2.03 log units.

Take `CC(=O)n1ccnc1`: the “pK_BHX (log10 Kf of the 1:1 H-bond complex with 4-fluorophenol, by FTIR)” value is 1.86 log units.

Turning to `CCSC`, the “pK_BHX (log10 Kf of the 1:1 H-bond complex with 4-fluorophenol, by FTIR)” value is given as 0.18 log units.

Consider `Fc1cccc(F)n1`, for which the “pK_BHX (log10 Kf of the 1:1 H-bond complex with 4-fluorophenol, by FTIR)” value is 0.14 log units.

In the case of `N#CC12CC3CC(CC(C3)C1)C2`, the “pK_BHX (log10 Kf of the 1:1 H-bond complex with 4-fluorophenol, by FTIR)” value is 1.0 log units.

On to `C1CCCNCC1`, for which the “pK_BHX (log10 Kf of the 1:1 H-bond complex with 4-fluorophenol, by FTIR)” value is recorded as 2.24 log units.

In the case of `CN(C)C(=S)Cl`, the “pK_BHX (log10 Kf of the 1:1 H-bond complex with 4-fluorophenol, by FTIR)” value is listed as 0.5 log units.

In the case of `Ic1cccnc1`, the “pK_BHX (log10 Kf of the 1:1 H-bond complex with 4-fluorophenol, by FTIR)” value was 1.37 log units.

As for `CCOc1ccccc1`, the “pK_BHX (log10 Kf of the 1:1 H-bond complex with 4-fluorophenol, by FTIR)” value is given as -0.01 log units.

As for `COc1ccccc1C=O`, the “pK_BHX (log10 Kf of the 1:1 H-bond complex with 4-fluorophenol, by FTIR)” value is 1.11 log units.

On to `O=C1CCCCCCCCCCCCCC1`, for which the “pK_BHX (log10 Kf of the 1:1 H-bond complex with 4-fluorophenol, by FTIR)” value is on record as 1.22 log units.

As for `CC(C)=O`, the “pK_BHX (log10 Kf of the 1:1 H-bond complex with 4-fluorophenol, by FTIR)” value was 1.18 log units.

With `CC(=O)N1CCCCC1`, the “pK_BHX (log10 Kf of the 1:1 H-bond complex with 4-fluorophenol, by FTIR)” value was 2.45 log units.
